Measurements published in patent EP0051819A2, “Tetra-substituted benzene derivatives, their preparation and pharmaceutical preparations containing them” (F. HOFFMANN-LA ROCHE & CO. Aktiengesellschaft, priority 1980, dated 1982).
≈ marks a conversion by molar mass, not a printed value. Like-named read-outs stand apart in the source and are kept apart here. Values belong to the compound of their own block, whether it stands above or below them.

What was measured:
Format in all cases: cell-based
[1] = Cytotoxic dose inhibiting HeLa cell growth; details: human, hela cells; footnote of Tabelle 2; read-out: cytotoxischen Dosen, die HeLa-Zellwachstum hemmen
Rhinovirus HGP = assay: Antiviral activity: inhibition of viral cytopathogenic effect (C.P.E.) in HeLa cell culture; details: for IC50: Enterovirus, HeLa, 48 h; for antivirale Aktivität: qualitative statement in the description, no virus named
Procedure: (§1) Eine Suspension von HeLa-Zellen (6 x 10^4) wurde mit Rhinovirus HGP (3 x 10^3 Plaque-bildende Einheiten, PFU) gemischt und auf eine Mikrotestplatte gebracht, die die zu testenden Verbindungen in zunehmender Verdünnung enthielten. Die Zellen wurden dann in Eagle's Minimalnährlösung, die 2% Kalbsserum, 1% Tryptosephosphatbrühe, 100 ug/ml Streptomycin und 20 Einheiten/ml Penicillin G enthielt, kultiviert. Der virale zytopathogenische Effekt (C.P.E.) und die Cytotoxizität wurden mikroskopisch nach 2 Tagen Kultivierung bei 33°C beobachtet. Die antivirale Aktivität (IC50) der Testverbindungen ist diejenige Konzentration,.bei der C.P.E. um 50% gegenüber der Kontrollkultur gehemmt war. Die Cytotoxizität ist als Minimalkonzentration angegeben, bei der toxische Symptome beobachtet wurden.(cytotoxische Dosis).

Rhinovirus 14 = assay: Antiviral spectrum against rhinovirus serotypes (C.P.E. inhibition); details: Enterovirus; virus strain Rhinovirus 14
Procedure: as §1
(§2) Weiterhin sind die antiviralen Spektren von 1-(4-Ethoxy-2-hydroxy-6-methoxyphenyl)-3-(4-methoxyphenyl)-1-propanon (Verbindung A) und 4-Ethoxy-2-hydroxy-6-methoxy-N-(p-methoxybenzyl)benzamid (Verbindung B) gegen verschiedene Serotypen von Rhinoviren in Tabelle 2. angegeben.

Rhinovirus 9 = assay: as above; details: Enterovirus; virus strain Rhinovirus 9
Procedure: as §1, §2

Rhinovirus 1B = assay: as above; details: Enterovirus; virus strain Rhinovirus 1B
Procedure: as §1, §2

Rhinovirus 25 = assay: as above; details: Enterovirus; virus strain Rhinovirus 25
Procedure: as §1, §2

Rhinovirus 2 = assay: as above; details: Enterovirus; virus strain Rhinovirus 2
Procedure: as §1, §2

Rhinovirus 1A = assay: as above; details: Enterovirus; virus strain Rhinovirus 1A
Procedure: as §1, §2

Rhinovirus 50 = assay: as above; details: Enterovirus; virus strain Rhinovirus 50
Procedure: as §1, §2

Rhinovirus 23 = assay: as above; details: Enterovirus; virus strain Rhinovirus 23
Procedure: as §1, §2

Rhinovirus 39 = assay: as above; details: Enterovirus; virus strain Rhinovirus 39
Procedure: as §1, §2

Rhinovirus 31 = assay: as above; details: Enterovirus; virus strain Rhinovirus 31
Procedure: as §1, §2

Rhinovirus 21 = assay: as above; details: Enterovirus; virus strain Rhinovirus 21
Procedure: as §1, §2

Rhinovirus 46 = assay: as above; details: Enterovirus; virus strain Rhinovirus 46
Procedure: as §1, §2

Rhinovirus 24 = assay: as above; details: Enterovirus; virus strain Rhinovirus 24
Procedure: as §1, §2

[2] = Cytotoxicity in HeLa cells, observed microscopically in the antiviral test; details: human, hela cells; minimal concentration at which toxic symptoms were observed (cytotoxische Dosis); 2 days at 33°C; read-out: Cytotoxizität
Procedure: as §1

Rhinovirus 55 = assay: Antiviral spectrum against rhinovirus serotypes (C.P.E. inhibition); details: Enterovirus; virus strain Rhinovirus 55
Procedure: as §1, §2

Rhinovirus 44 = assay: as above; details: Enterovirus; virus strain Rhinovirus 44
Procedure: as §1, §2

Rhinovirus 30 = assay: as above; details: Enterovirus; virus strain Rhinovirus 30
Procedure: as §1, §2

Rhinovirus 16 = assay: as above; details: Enterovirus; virus strain Rhinovirus 16
Procedure: as §1, §2

Rhinovirus 36 = assay: as above; details: Enterovirus; virus strain Rhinovirus 36
Procedure: as §1, §2

Rhinovirus 32 = assay: as above; details: Enterovirus; virus strain Rhinovirus 32
Procedure: as §1, §2

Rhinovirus 47 = assay: as above; details: Enterovirus; virus strain Rhinovirus 47
Procedure: as §1, §2

HeLa-Zellen = assay: Cytotoxicity in HeLa cells, observed microscopically in the antiviral test; details: minimal concentration at which toxic symptoms were observed (cytotoxische Dosis); 2 days at 33°C
Procedure: as §1

[3] = concentration inhibiting C.P.E. by 50% versus control culture, HeLa cells, 2 days at 33°C, read-out: IC50

SMILES: CCOc1cc(O)c(C(=O)CCc2ccc(OC)cc2)c(OC)c1 [1-(4-Ethoxy-2-hydroxy-6-methoxyphenyl)-3-(4-methoxyphenyl)-1-propanon]
MCC [1]: 60 µg/mL
IC50 (Rhinovirus HGP; [3]): 0.002 µg/mL (≈ 0.00605 µM)
antivirale Aktivität (Rhinovirus HGP): besonders starke antivirale Aktivität
IC50 (Rhinovirus 14): 0.1 to 0.3 µg/mL (≈ 0.303 to 0.908 µM)
IC50 (Rhinovirus 9): 0.012 to 0.037 µg/mL (≈ 0.0363 to 0.112 µM)
IC50 (Rhinovirus 1B): 0.03 to 0.09 µg/mL (≈ 0.0908 to 0.272 µM)
IC50 (Rhinovirus 25): 0.01 to 0.09 µg/mL (≈ 0.0303 to 0.272 µM)
IC50 (Rhinovirus 2): 0.001 µg/mL (≈ 0.00303 µM)
IC50 (Rhinovirus 1A): 0.03 to 0.09 µg/mL (≈ 0.0908 to 0.272 µM)
IC50 (Rhinovirus 50): 0.004 to 0.012 µg/mL (≈ 0.0121 to 0.0363 µM)
IC50 (Rhinovirus 23): 0.004 µg/mL (≈ 0.0121 µM)
IC50 (Rhinovirus 39): 0.012 to 0.037 µg/mL (≈ 0.0363 to 0.112 µM)
IC50 (Rhinovirus 31): 0.03 to 0.09 µg/mL (≈ 0.0908 to 0.272 µM)
IC50 (Rhinovirus 21): < 0.001 µg/mL
IC50 (Rhinovirus 46): 0.037 to 0.11 µg/mL (≈ 0.112 to 0.333 µM)
IC50 (Rhinovirus 24): 0.01 to 0.03 µg/mL (≈ 0.0303 to 0.0908 µM)
MCC at 48 h [2]: > 8 µg/mL

SMILES: CCOc1cc(O)c(C(=O)NCc2ccc(OC)cc2)c(OC)c1 [4-Ethoxy-2-hydroxy-6-methoxy-N-(p-methoxybenzyl)benzamid]
MCC [1]: 40 µg/mL
IC50 (Rhinovirus HGP; [3]): 0.002 µg/mL (≈ 0.00604 µM)
antivirale Aktivität (Rhinovirus HGP): besonders starke antivirale Aktivität
IC50 (Rhinovirus 55): 0.009 µg/mL (≈ 0.0272 µM)
IC50 (Rhinovirus 14): 0.009 to 0.027 µg/mL (≈ 0.0272 to 0.0815 µM)
IC50 (Rhinovirus 9): 0.003 µg/mL (≈ 0.00905 µM)
IC50 (Rhinovirus 44): 0.003 µg/mL (≈ 0.00905 µM)
IC50 (Rhinovirus 1B): 0.003 to 0.009 µg/mL (≈ 0.00905 to 0.0272 µM)
IC50 (Rhinovirus 2): 0.001 µg/mL (≈ 0.00302 µM)
IC50 (Rhinovirus 1A): 0.009 to 0.027 µg/mL (≈ 0.0272 to 0.0815 µM)
IC50 (Rhinovirus 30): 0.001 to 0.003 µg/mL (≈ 0.00302 to 0.00905 µM)
IC50 (Rhinovirus 16): 0.003 µg/mL (≈ 0.00905 µM)
IC50 (Rhinovirus 36): 0.009 to 0.027 µg/mL (≈ 0.0272 to 0.0815 µM)
IC50 (Rhinovirus 50): 0.01 µg/mL (≈ 0.0302 µM)
IC50 (Rhinovirus 39): 0.003 µg/mL (≈ 0.00905 µM)
IC50 (Rhinovirus 31): 0.081 to 0.24 µg/mL (≈ 0.244 to 0.724 µM)
IC50 (Rhinovirus 21): < 0.001 µg/mL
IC50 (Rhinovirus 32): 0.003 to 0.009 µg/mL (≈ 0.00905 to 0.0272 µM)
IC50 (Rhinovirus 47): 0.003 µg/mL (≈ 0.00905 µM)
MCC at 48 h [2]: > 10 µg/mL

SMILES: CCOc1cc(OC)c(C(=O)CCc2ccc(OC)cc2)c(OP(=O)(O)O)c1 [5-Ethoxy-3-methoxy-2-[3-(4-methoxyphenyl)propionyl]phenyldihydrogenphosphat]
IC50 (Rhinovirus HGP): 0.3 to 0.8 µg/mL (≈ 0.731 to 1.95 µM)
MCC at 48 h [2]: > 10 µg/mL

SMILES: CCOc1cc(OC)c(C(=O)NCc2ccc(OC)cc2)c(OP(=O)([O-])[O-])c1.[Na+].[Na+] [Dinatrium 2-[(p-Anisylamino)carbonyl]-5-ethoxy-3-methoxyphenyl-phosphat]
IC50 (Rhinovirus HGP): 0.01 to 0.03 µg/mL
antivirale Aktivität (Rhinovirus HGP): besonders starke antivirale Aktivität
Cytotoxizität (HeLa-Zellen): >8 µg/mL

SMILES: CCCOc1cc(OC)c(C(=O)NCc2ccc(OC)cc2)c(OP(=O)([O-])[O-])c1.[Na+].[Na+] [Dinatrium 2-[(p-anisylamino)carbonyl]-3-methoxy-5-propoxyphenylphosphat]
IC50 (Rhinovirus HGP): 0.01 to 0.02 µg/mL
antivirale Aktivität (Rhinovirus HGP): besonders starke antivirale Aktivität
MCC at 48 h [2]: > 200 µg/mL

SMILES: CCOc1cc(OC)c(C(=O)CCc2ccc(OC)cc2)c(OP(=O)([O-])[O-])c1.[Na+].[Na+] [Dinatrium 5-ethoxy-3-methoxy-2-[3-(4-methoxyphenyl)-propionyl]phenylphosphat]
IC50 (Rhinovirus HGP): 0.03 to 0.1 µg/mL
Cytotoxizität (HeLa-Zellen): >10 µg/mL

SMILES: CCCCOc1ccc(CNC(=O)c2c(O)cc(OC)cc2OC)cc1 [N-(p-Butoxybenzyl)-2-hydroxy--4,6-dimethoxybenzamid]
IC50 (Rhinovirus HGP; [3]): 0.3 µg/mL (≈ 0.835 µM)
MCC at 48 h [2]: 8 µg/mL

SMILES: COc1cc(O)c(C(=O)NCc2ccc(Cl)cc2)c(OC)c1 [N-(p-Chlorobenzyl)-2-hydroxy--4,6-dimethoxybenzamid]
IC50 (Rhinovirus HGP; [3]): 0.01 to 0.03 µg/mL (≈ 0.0311 to 0.0932 µM)
MCC at 48 h [2]: > 2.4 µg/mL

SMILES: COc1cc(O)c(C(=O)NCc2ccccc2)c(OC)c1 [N-Benzyl-2-hydroxy-4,6-dimethoxy-benzamid]
IC50 (Rhinovirus HGP; [3]): 0.03 to 0.1 µg/mL (≈ 0.104 to 0.348 µM)
MCC at 48 h [2]: > 8 µg/mL

Second part, led by results:

IC50 (Rhinovirus HGP; [3]): 0.1 µg/mL (≈ 0.312 µM)
SMILES: COc1cc(O)c(C(=O)CCc2ccc(Cl)cc2)c(OC)c1 [3-(4-Chlorophenyl)-1-(2-hydroxy--4,6-dimethoxyphenyl)-1--propanon]
MCC at 48 h [2]: 10 µg/mL

IC50 (Rhinovirus HGP; [3]): 0.002 µg/mL (≈ 0.00582 µM)
SMILES: C=CCOc1cc(O)c(C(=O)NCc2ccc(OC)cc2)c(OC)c1 [4-(Allyloxy)-2-hydroxy-6-methoxy-N-(p-methoxybenzyl)benzamid]
antivirale Aktivität (Rhinovirus HGP): besonders starke antivirale Aktivität
MCC at 48 h [2]: > 8 µg/mL

IC50 (Rhinovirus HGP; [3]): 0.01 µg/mL (≈ 0.0288 µM)
SMILES: CCOc1cc(O)c(C(=S)NCc2ccc(OC)cc2)c(OC)c1 [4-Ethoxy-2-hydroxy-6-methoxy-N-(p-methoxybenzyl)-thiobenzamid]
MCC at 48 h [2]: > 8 µg/mL

IC50 (Rhinovirus HGP; [3]): 0.001 µg/mL (≈ 0.00269 µM)
SMILES: CCOc1cc(OC)c(C(=O)CCc2ccc(OC)cc2)c(OC(C)=O)c1 [5-Ethoxy-3-methoxy-2-[3-(4-methoxyphenyl)-propionyl]phenyl-acetat]
MCC at 48 h [2]: > 8 µg/mL

IC50 (Rhinovirus HGP; [3]): 0.002 µg/mL (≈ 0.00497 µM)
SMILES: CCOC(=O)Oc1cc(OCC)cc(OC)c1C(=O)CCc1ccc(OC)cc1 [5-Ethoxy-3-methoxy-2-[3-(4-methoxyphenyl)propionyl]-phenyl-ethylcarbonat]
antivirale Aktivität (Rhinovirus HGP): besonders starke antivirale Aktivität
MCC at 48 h [2]: 8 µg/mL

IC50 (Rhinovirus HGP; [3]): 0.01 µg/mL (≈ 0.023 µM)
SMILES: CCOc1cc(OC)c(C(=O)CCc2ccc(OC)cc2)c(OC(=O)c2ccccc2)c1 [5-Ethoxy-3-methoxy-2-[3-(4-methoxyphenyl)propionyl]phenyl-benzoat]
MCC at 48 h [2]: > 8 µg/mL

IC50 (Rhinovirus HGP; [3]): 0.9 µg/mL (≈ 1.51 µM)
SMILES: CCCCCCCCCCCCCCCCCC(=O)Oc1cc(OCC)cc(OC)c1C(=O)CCc1ccc(OC)cc1 [5-Ethoxy-3-methoxy-2-[3-(4-methoxyphenyl)propionyl]phenyl-octadecanoat]
MCC at 48 h [2]: > 8 µg/mL

IC50 (Rhinovirus HGP; [3]): 2.7 µg/mL (≈ 5.48 µM)
SMILES: CCOc1cc(OC)c(C(=O)CCc2ccc(OC)cc2)c(O[C@@H]2O[C@H](CO)[C@@H](O)[C@H](O)[C@H]2O)c1 [5-Ethoxy-3-methoxy-2-[3-(4-methoxyphenyl)propionyl]phenyl-ß-D-glucopyranosid]
MCC at 48 h [2]: > 10 µg/mL

IC50 (Rhinovirus HGP; [3]): 0.03 to 0.1 µg/mL (≈ 0.108 to 0.361 µM)
SMILES: COc1cc(O)c(C(=O)NCc2ccco2)c(OC)c1 [N-Furfuryl-2-hydroxy-4,6--dimethoxybenzamid]
MCC at 48 h [2]: > 8 µg/mL

IC50 (Rhinovirus HGP; [3]): 0.01 µg/mL (≈ 0.0291 µM)
SMILES: C=CCOc1ccc(CNC(=O)c2c(O)cc(OC)cc2OC)cc1 [N-[p-(Allyloxy)benzyl]-2-hydroxy-4,6-dimethoxybenzamid]
MCC at 48 h [2]: 8 µg/mL

IC50 (Rhinovirus HGP; [3]): 0.3 to 0.9 µg/mL (≈ 0.763 to 2.29 µM)
SMILES: COc1cc(O)c(C(=O)NCc2ccc(OCc3ccccc3)cc2)c(OC)c1 [N-[p-(Benzyloxy)benzyl]-2--hydroxy-4,6-dimethoxybenzamid]
MCC at 48 h [2]: > 8 µg/mL

IC50 (Rhinovirus HGP; [3]): 0.01 µg/mL (≈ 0.0303 µM)
SMILES: COc1cc(O)c(C(=O)NCc2ccc(N(C)C)cc2)c(OC)c1 [N-[p-(Dimethylamino)benzyl]-2--hydroxy-4,6-dimethoxybenzamid]
MCC at 48 h [2]: > 8 µg/mL
